According to US10617679B2, “Deuterated compounds and medical uses thereof” (JINGLUWEIDAI INFORMATION CONSULTING SERVICE (BEIJING) CO. …, priority 2016, dated 2020):

Columns and labels:
[1] = tested on: oxycodone-induced place preference in rats; assay: Inhibition of oxycodone-induced place preference in rats; format: in vivo, SD rats; conditions: day 10, within 15 minutes
Method: SD rats (male, weight 160-180 g) were placed in conditioned place preference (CPP) training boxes, where the partition door between the boxes was open. Time the rats spent in each of the boxes was recorded within 15 min in order to determine the natural tendency of the rats. The rats were then randomly divided into groups with 10 rats in each group according to the amount of time spent in the white box. The white box was a drug box, and the black box was a box with the absence of the drug. After intragastric administration with a test compound for 40 minutes, the rats were injected subcutaneously with oxycodone (2.5 mg/kg, s.c.) or saline, and immediately placed in the white box or the black box to be trained for 45 minutes, once a day for 9 consecutive days. On the 10th day, the rats were placed in the training boxes with the partition door open. The time the rats spent in the white box was recorded within 15 minutes to evaluate effects on place preference in the rats.

rat formalin model = assay: Analgesic effects of intragastric administration in a rat formalin model; format: in vivo, SD rats; conditions: mean ± SD; for Reaction time for phase I: licking time 0-5 min after formalin; for Reaction time for Phase II: licking time 15-30 min after formalin
Method: SD rats (male, weight 160-180 g) were randomly divided into groups with 6 rats in each group. After the rats were intragastrically administered different doses separately, they were placed in PVC observation boxes for habituation. After 30 min, the rats were injected subcutaneously with 20 μL of 2.7% formalin solution into the plantar surface of the left hind paws, and quickly put back in the PVC observation boxes for observation. The length of time the rats spent licking the injected-formalin paws at the early response (0-5 min, phase I) and the late response (15-30 min, Phase II) was recorded, and the analgesic activities of the test compounds were evaluated according to the length of time the rats spent licking during the period of observation. The experimental data were expressed as mean±standard deviation. The shorter the licking time, the better the analgesic effect of the compound.

Wistar rats = assay: Evaluation of subacute toxicity (14 days, intragastric); format: in vivo; conditions: 40 mg/kg intragastric once a day for 14 days; for ALT / AST: rat
Method: Male Wistar rats were randomly divided into groups with 10 rats in each group and weighed. A certain concentration of a test sample was ground and suspended in a 0.5% sodium carboxymethyl cellulose solution. The sodium carboxymethyl cellulose suspension containing 40 mg/kg of the test compound and a blank sodium carboxymethyl cellulose suspension as a control were intragastrically administered, once a day for 14 consecutive days. After the last administration, the rats were fasted but had free access to drinking water for 12 hours, and then anesthetized. Their blood samples were obtained from the abdominal aortas. According to SOPB093 “Standard Operating Procedures for Serum Preparation” in National Beijing Center for Drug Safety Evaluation and Research, serum was prepared for the determination of blood biochemical and immunological indicators; according to SOPB032 “Preparation of vacuum tubes with EDTA anticoagulation”, EDTA anticoagulation was prepared for the general blood routine tests.

[2] = tested on: rat chronic sciatic nerve compression neuralgia model; assay: Analgesic effects of intragastric administration in a rat chronic sciatic nerve compression neuralgia model; format: in vivo, SD rats; conditions: pain threshold 1 hour after administration
Method: SD rats (male, weight 160-180 g) were anesthetized using sodium pentobarbital (40 mg/kg), of which the sciatic nerves were separated in the middle segment of the right hind limbs. In the anterior segment of the sciatic nerve to be bifurcated, the sciatic nerve was separated from the surrounding tissue using a sterile glass hook. Four rings were loosely ligated with sterile chrome gut (No. 4, 0.15 mm in diameter) by an interval of 1 to 2 mm. Topically sprinkled with penicillin powder. The muscle tissue and skin were sutured. The rats were placed in a cage with cork dust. In the sham surgery group, the sciatic nerve was only exposed, and the other treatments were the same as described above. The rats after surgery were placed in a metal cage. […] The weight of the filament was recorded and set to be the threshold (in g). Meanwhile, the number of foot-lifting response to the 10 stimulations of the fiber filaments of different weights was recorded, and the highest threshold was set at 26 g.
5-6 rats in each group were intragastrically administered and the pain thresholds were measured 1 hour after administration. Statistical analysis of the thresholds was performed using non-parametric Wilcoxon 2-Sample Test and Kruskal-Wallis Test, and the data was analyzed with SASS data processing software. Analgesic percent (%)=(pain threshold after drug treatment−pain threshold before drug treatment)/(maximal analgesia threshold−pain threshold before drug treatment)[…].

heart rate in rats = assay: Effects on heart rate in rats; format: in vivo, SD rats
Method: (§1) SD rats (male, weight 160-180 g) were fasted for 12 hours before administration but had free access to drinking water. The rats were randomly divided into groups. They were anesthetized with an intraperitoneal injection of 50-60 mg/kg dose of sodium pentobarbital. Each rat was fixed on the back on the surgical table. The skin was cut from the center of the neck, and an incision of about 2.5 cm was made. The subcutaneous tissue and the median muscle were separated; the trachea was fully exposed; and the endotracheal intubation was performed. The subcutaneous tissue was separated from front to back on the right side; the right common carotid artery, the vagus nerve and the sympathetic nerve were exposed; and the carotid artery cannulation was performed. Finally, the endotracheal tube and the carotid artery cannula were respectively connected to a respiration transducer and a blood pressure transducer, and then connected to a multifunctional physiological recorder. At 30 minutes after surgery, the rats were intragastrically administrated. Heart rate and blood pressure were measured at different time points after administration.

blood pressure in rats = assay: Effects on blood pressure in rats; format: in vivo, SD rats
Method: as §1

[3] = test dose 10 mg/kg intragastric + oxycodone 2.5 mg/kg s.c.
[4] = test dose 20 mg/kg intragastric + oxycodone 2.5 mg/kg s.c.
[5] = 20 mg/kg intragastric, time point 0
[6] = 20 mg/kg intragastric, time point 30
[7] = 20 mg/kg intragastric, time point 60
[8] = 20 mg/kg intragastric, time point 90
[9] = 20 mg/kg intragastric, time point 120
[10] = 20 mg/kg intragastric, time point 180
[11] = 40 mg/kg intragastric, time point 0
[12] = 40 mg/kg intragastric, time point 30
[13] = 40 mg/kg intragastric, time point 60
[14] = 40 mg/kg intragastric, time point 90
[15] = 40 mg/kg intragastric, time point 120
[16] = 40 mg/kg intragastric, time point 180

| Compound | Time spent in the drug box (Mean ± S) [1, 3] [s] | Time spent in the drug box (Mean ± S) [1, 4] [s] | Reaction time for phase I (rat formalin model; 20 mg/kg intragastric) [s] | Reaction time for Phase II (rat formalin model; 20 mg/kg intragastric) [s] | Reaction time for phase I (rat formalin model; 40 mg/kg intragastric) [s] | Reaction time for Phase II (rat formalin model; 40 mg/kg intragastric) [s] | ALT (Wistar rats) [U/L] | AST (Wistar rats) [U/L] | plasma ALT and AST versus control group (Wistar rats; result in words) | Analgesic percent ([2]; 20 mg/kg intragastric) [%] | Analgesic percent ([2]; 40 mg/kg intragastric) [%] | Heart rate (heart rate in rats; [5]) [BTM] | Heart rate (heart rate in rats; [6]) [BTM] | Heart rate (heart rate in rats; [7]) [BTM] | Heart rate (heart rate in rats; [8]) [BTM] | Heart rate (heart rate in rats; [9]) [BTM] | Heart rate (heart rate in rats; [10]) [BTM] | Heart rate (heart rate in rats; [11]) [BTM] | Heart rate (heart rate in rats; [12]) [BTM] | Heart rate (heart rate in rats; [13]) [BTM] | further results |
| --- | --- | --- | --- | --- | --- | --- | --- | --- | --- | --- | --- | --- | --- | --- | --- | --- | --- | --- | --- | --- | --- |
| [2H]C([2H])([2H])Oc1cc2c(cc1OC([2H])([2H])[2H])[C@@H]1Cc3ccc(OC([2H])([2H])[2H])c(OC([2H])([2H])[2H])c3CN1CC2 [Formula I7, (13a S)-2,3,9,10-tetra-[(trideutero)-methoxy]-6,8,13,13a-tetrahydro-5H-isoquinolino[2,1-b]isoquinoline] | 154.32 ± 21.38 | 135.40 ± 25.09 | 45.2 ± 9.9 | 58.2 ± 12.5 | 35.7 ± 9.0 | 35.9 ± 13.6 | 84.5 ± 20.6 | 143.8 ± 21.0 | no significant difference | 70.67 | 73.53 | 401.5 ± 32.1 | 380.8 ± 33.4 | 389.5 ± 26.6 | 405.3 ± 31.0 | 391.0 ± 24.9 | 398.5 ± 28.8 | 407.9 ± 29.5 | 366.8 ± 27.7 | 332.6 ± 24.9 | Heart rate (heart rate in rats; [14]): 343.2 ± 21.0 BTM; Heart rate (heart rate in rats; [15]): 356.7 ± 25.8 BTM; Heart rate (heart rate in rats; [16]): 362.0 ± 32.1 BTM; Blood pressure (blood pressure in rats; [5]): 112.6 ± 27.5 mmHg; Blood pressure (blood pressure in rats; [6]): 103.4 ± 11.7 mmHg; Blood pressure (blood pressure in rats; [7]): 104.2 ± 9.8 mmHg; Blood pressure (blood pressure in rats; [8]): 102.6 ± 7.2 mmHg; Blood pressure (blood pressure in rats; [9]): 114.1 ± 11.3 mmHg; Blood pressure (blood pressure in rats; [10]): 135.3 ± 15.6 mmHg; Blood pressure (blood pressure in rats; [11]): 113.0 ± 11.4 mmHg; Blood pressure (blood pressure in rats; [13]): 83.5 ± 7.2 mmHg; Blood pressure (blood pressure in rats; [14]): 82.6 ± 6.5 mmHg; Blood pressure (blood pressure in rats; [15]): 95.3 ± 9.5 mmHg; Blood pressure (blood pressure in rats; [16]): 101.8 ± 8.1 mmHg |
| [2H]C([2H])([2H])Oc1cc2c(cc1OC)CCN1Cc3c(ccc(OC([2H])([2H])[2H])c3OC)C[C@@H]21 [Formula I6, (13a S)-3,9-dimethoxy-2,10-di-[(trideutero)-methoxy]-6,8,13,13a-tetrahydro-5H-isoquinolino[2,1-b]isoquinoline] | 183.27 ± 33.97 | 129.35 ± 23.66 | 41.9 ± 9.2 | 66.7 ± 8.7 | 38.6 ± 9.4 | 40.3 ± 9.0 | 165.3 ± 38.0 | 251.8 ± 32.0 | significant increase | 63.80 | 69.12 | 407.1 ± 43.4 | 400.2 ± 29.4 | 401.0 ± 28.47 | 403.0 ± 30.2 | 396.7 ± 36.3 | 402.5 ± 28.8 | 414.1 ± 37.6 | 375.8 ± 29.3 | 362.8 ± 20.7 | histopathological examination of liver (Wistar rats; result in words): vacuolar degeneration of hepatocytes; Heart rate (heart rate in rats; [14]): 367.2 ± 27.0 BTM; Heart rate (heart rate in rats; [15]): 393.5 ± 34.6 BTM; Heart rate (heart rate in rats; [16]): 380.8 ± 30.5 BTM; Blood pressure (blood pressure in rats; [5]): 115.6 ± 21.9 mmHg; Blood pressure (blood pressure in rats; [6]): 108.5 ± 10.75 mmHg; Blood pressure (blood pressure in rats; [7]): 102.0 ± 11.4 mmHg; Blood pressure (blood pressure in rats; [8]): 104.7 ± 10.70 mmHg; Blood pressure (blood pressure in rats; [9]): 110.5 ± 6.8 mmHg; Blood pressure (blood pressure in rats; [10]): 106.5 ± 13.7 mmHg; Blood pressure (blood pressure in rats; [11]): 111.0 ± 21.4 mmHg; Blood pressure (blood pressure in rats; [12]): 95.4 ± 14.5 mmHg; Blood pressure (blood pressure in rats; [13]): 83.5 ± 10.30 mmHg; Blood pressure (blood pressure in rats; [14]): 85.2 ± 8.0 mmHg; Blood pressure (blood pressure in rats; [15]): 110.00 ± 11.6 mmHg; Blood pressure (blood pressure in rats; [16]): 109.5 ± 14.1 mmHg |
